# In US8101601B2, “Aminoacyl prodrug derivatives and medicaments for the treatment of thromboembolitic disorders” (Bayer Pharma Aktiengesellschaft, priority 2007, dated 2012):
# Counter-ions that a name gives are not always drawn.
# Experiments:
# [1] = Determination of the solubility (suspension shaken 24 h at room temperature, HPLC); type: physicochemical; details: thermodynamic from solid
# Procedure: […] This suspension is shaken at room temperature for 24 h. After ultracentrifugation at 224 000 g for 30 min, the supernatant is diluted with DMSO and analysed by HPLC. A two-point calibration plot of the test compound in DMSO is used for quantification.
# Agilent 1100 with DAD (G1315A), quat. pump (G1311A), autosampler CTC HTS PAL, degasser (G1322A) and column thermostat (G1316A); column: Zorbax Extend-C18 3.5μ; temperature: 40° C.; eluent A: water+5 ml of perchloric acid/liter, eluent B: acetonitrile; flow rate: 0.7 ml/min; gradient: 0-0.5 min 98% A, 2% B; ramp 0.5-4.5 min 10% A, 90% B; 4.5-6 min 10% A, 90% B; ramp 6.5-6.7 min 98% A, 2% B; 6.7-7.5 min 98% A, 2% B.
# [2] = In vitro stability in rat plasma (LC/MS-MS detection); type: in vitro ADME, Wistar rats; details: Wistar rat plasma, 37° C.
# Procedure: A defined plasma volume (e.g. 2.0 ml) is warmed to 37° C. in a closed test tube in a waterbath. After the intended temperature is reached, a defined amount of the test substance is added as solution (volume of the solvent not more than 2% of the plasma volume). The plasma is shaken and a first sample (50-100 μl) is immediately taken. Then 4-6 further aliquots are taken in the period up for 2 h after the start of incubation.
# Acetonitrile is added to the plasma samples to precipitate proteins. After centrifugation, the test substance and, where appropriate, known cleavage products of the test substance in the supernatant are determined quantitatively with a suitable LC/MS-MS method.
# The concentrations c of the compound of Example 6 and of the active ingredient compound (A) liberated therefrom determined at various times in the plasma of Wistar rats are shown in Table 3:
# The concentrations c of the compound of Example 13 and of the active ingredient compound (A) liberated therefrom determined at various times in the plasma of Wistar rats are shown in Table 4: […]
# [3] = Stability in buffer at various pH values (HPLC, 37° C., 24 h); type: physicochemical
# Procedure: 0.3 mg of the test substance is weighed into a 2 ml HPLC vial and 0.5 ml of acetonitrile is added. The substance is dissolved by putting the sample vessel in an ultrasonic bath for about 10 seconds. Then 0.5 ml of the respective buffer solution is added, and the sample is again treated in the ultrasonic bath.
# • pH 4.0:1 liter of Millipore water is adjusted to pH 4.0 with 1 N hydrochloric acid; • pH 7.4: 90 g of sodium chloride, 13.61 g of potassium dihydrogen phosphate and 83.35 g of 1 M sodium hydroxide solution are made up to 1 liter with Millipore water and then diluted 1:10.
# 5 μl portions of the test solution are analysed by HPLC for their content of unchanged test substance every hour over a period of 24 hours at 37° C. The percentage areas of the appropriate peaks are used for quantification.
# Agilent 1100 with DAD (G1314A), binary pump (G1312A), autosampler (G1329A), column oven (G1316A), thermostat (G1330A); column: Kromasil 100 C18, 125 mm×4.6 mm, 5 μm; column temperature: 30° C.; eluent A: water+5 ml of perchloric acid/liter, eluent B: acetonitrile.
# The ratios of the peak areas (F) at the respective time points in relation to the peak areas at the starting time are shown in Table 2 for representative exemplary embodiments: […]
# [4] = In vitro stability in rat plasma (HPLC detection); type: in vitro ADME; details: 37° C., read-out: half-life of degradation to liberate compound (A)
# Procedure: 1 mg of substance is dissolved in 1.25 ml of dimethyl sulphoxide. Then 1.25 ml of water are added. 500 μl of this sample solution are mixed with 500 μl of rat plasma at 37° C. and shaken. A first sample (10 μl) is immediately taken for HPLC analysis. In the period up to 2 h after the start of incubation, further aliquots are taken after 2, 5, 10, 30, 60 and 90 min, and the content of the respective test substance and of the active ingredient compound (A) liberated therefrom is determined.
# Agilent 1100 with DAD (G1314A), binary pump (G1312A), autosampler (G1329A), column oven (G1316A), thermostat (G1330A); column: Kromasil 100 C18, 250 mm×4.6 mm, 5 μm; column temperature: 30° C.; eluent A: water+5 ml of perchloric acid/liter, eluent B: acetonitrile.
# [5] = 5% dextrose adjusted to pH 4 with hydrochloric acid, pH 4, saline or isotonic
# [6] = buffer pH 4, 37° C., hydrochloride
SMILES,"solubility at 24 h ([1]; dilute hydrochloric acid (pH 4), pH 4, aqueous buffer, room temperature, 24 h)",c of test substance ([2]; incubation time 0 h),c of test substance ([2]; incubation time 0.08 h),c of test substance ([2]; incubation time 0.17 h),"% test substance after 4 h [F(t = 4 h) × 100/F(t = 0 h)] ([3]; buffer pH 4, 37° C.)","% Test substance after 24 h [F(t = 24 h) × 100/F(t = 0 h)] ([3]; buffer pH 4, 37° C.)","% test substance after 4 h [F(t = 4 h) × 100/F(t = 0 h)] ([3]; buffer pH 7.4, 37° C.)","% Test substance after 24 h [F(t = 24 h) × 100/F(t = 0 h)] ([3]; buffer pH 7.4, 37° C.)","solubility at 24 h [1, 5]",half-life at 0.2 mg/ml [4],"% test substance after 4 h [F(t = 4 h) × 100/F(t = 0 h)] [3, 6]","% Test substance after 24 h [F(t = 24 h) × 100/F(t = 0 h)] [3, 6]"
"CC(C)[C@@H](N)C(=O)OCC(=O)N(C[C@H]1CN(c2ccc(N3CCOCC3=O)cc2)C(=O)O1)C(=O)c1ccc(Cl)s1 [Example 6, 2-[[(5-Chloro-2-thienyl)carbonyl]({(5S)-2-oxo-3-[4-(3-oxomorpholin-4-yl)phenyl]-1,3-oxazolidin-5-yl}methyl)amino]-2-oxoethyl D-valinate hydrochloride]",860 µg/mL,0.403 mg/L,0.0756 mg/L,0.0079 mg/L,100%,98%,90%,59%,–,–,–,–
"CNCCCC(=O)N(C[C@H]1CN(c2ccc(N3CCOCC3=O)cc2)C(=O)O1)C(=O)c1ccc(Cl)s1 [Example 13, 5-Chloro-N-[4-(methylamino)butanoyl]-N-({(5S)-2-oxo-3-[4-(3-oxomorpholin-4-yl)phenyl]-1,3-oxazolidin-5-yl}methyl)thiophene-2-carboxamide hydrochloride]",–,0.5 mg/L,–,–,–,–,–,–,2700 µg/mL,< 2 min,99%,91%
"CNCCCCC(=O)N(C[C@H]1CN(c2ccc(N3CCOCC3=O)cc2)C(=O)O1)C(=O)c1ccc(Cl)s1 [Example 17, 5-Chloro-N-[5-(methylamino)pentanoyl]-N-({(5S)-2-oxo-3-[4-(3-oxomorpholin-4-yl)phenyl]-1,3-oxazolidin-5-yl}methyl)thiophene-2-carboxamide hydrochloride]",–,–,–,–,–,–,–,–,–,< 2 min,83%,55%
"NCCCCC(=O)N(C[C@H]1CN(c2ccc(N3CCOCC3=O)cc2)C(=O)O1)C(=O)c1ccc(Cl)s1 [Example 20, N-(5-Aminopentanoyl)-5-chloro-N-({(5S)-2-oxo-3-[4-(3-oxomorpholin-4-yl)phenyl]-1,3-oxazolidin-5-yl}methyl)thiophene-2-carboxamide hydrochloride]",–,–,–,–,98%,90%,0%,0%,> 3000 µg/mL,< 2 min,–,–

# The next lines start with the values.
"solubility at 24 h ([1]; dilute hydrochloric acid (pH 4), pH 4, aqueous buffer, room temperature, 24 h)",c of test substance ([2]; incubation time 0 h),c of test substance ([2]; incubation time 0.08 h),c of test substance ([2]; incubation time 0.17 h),"% test substance after 4 h [F(t = 4 h) × 100/F(t = 0 h)] ([3]; buffer pH 4, 37° C.)","% Test substance after 24 h [F(t = 24 h) × 100/F(t = 0 h)] ([3]; buffer pH 4, 37° C.)","% test substance after 4 h [F(t = 4 h) × 100/F(t = 0 h)] ([3]; buffer pH 7.4, 37° C.)","% Test substance after 24 h [F(t = 24 h) × 100/F(t = 0 h)] ([3]; buffer pH 7.4, 37° C.)","solubility at 24 h [1, 5]",half-life at 0.2 mg/ml [4],"% test substance after 4 h [F(t = 4 h) × 100/F(t = 0 h)] [3, 6]","% Test substance after 24 h [F(t = 24 h) × 100/F(t = 0 h)] [3, 6]",SMILES
–,–,–,–,100%,98%,–,–,> 3000 µg/mL,< 2 min,–,–,"CCCCNCCCC(=O)N(C[C@H]1CN(c2ccc(N3CCOCC3=O)cc2)C(=O)O1)C(=O)c1ccc(Cl)s1 [Example 22, N-[4-(Butylamino)butanoyl]-5-chloro-N-({(5S)-2-oxo-3-[4-(3-oxomorpholin-4-yl)phenyl]-1,3-oxazolidin-5-yl}methyl)thiophene-2-carboxamide hydrochloride]"
–,–,–,–,–,–,–,–,–,< 2 min,–,–,"NCCOCC(=O)N(C[C@H]1CN(c2ccc(N3CCOCC3=O)cc2)C(=O)O1)C(=O)c1ccc(Cl)s1 [Example 23, N-[(2-Aminoethoxy)acetyl]-5-chloro-N-({(5S)-2-oxo-3-[4-(3-oxomorpholin-4-yl)phenyl]-1,3-oxazolidin-5-yl}methyl)thiophene-2-carboxamide hydrochloride]"
